Measurements published in ChEMBL document CHEMBL1201862, “PubChem BioAssay data set” (2004).
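Tested at 5 concentrations; 48 h exposure; 96-well plates; endpoints linearly interpolated, else capped at highest concentration. Abbreviation: GI50, concentration required for 50% inhibition of growth.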 The source made the active and inactive calls. Cut-off read from the data, not from the text of the source: active = GI50 up to about 1.1 µM and inactive = higher.

Key:
Test in all cases: NCI-60 cell line screen, 48 h
HL-60 = tested on: HL-60
ACHN = tested on: ACHN
HCT-116 = tested on: HCT-116
SK-MEL-28 = tested on: SK-MEL-28
CAKI-1 = tested on: CAKI-1
EKVX = tested on: EKVX
NCI-H226 = tested on: NCI-H226
DMS-114 = tested on: DMS-114
KM-20L2 = tested on: KM-20L2
A498 = tested on: A498
HOP-92 = tested on: HOP-92
SF-539 = tested on: SF-539
SK-MEL-5 = tested on: SK-MEL-5
NCI-H460 = tested on: NCI-H460
SNB-19 = tested on: SNB-19
HOP-62 = tested on: HOP-62
NCI-H23 = tested on: NCI-H23
OVCAR-3 = tested on: OVCAR-3
HCT-15 = tested on: HCT-15
TK-10 = tested on: TK-10
HT-29 = tested on: HT-29
HCC 2998 = tested on: HCC 2998
SW-620 = tested on: SW-620
RPMI-8226 = tested on: RPMI-8226
KM12 = tested on: KM12
K562 = tested on: K562
M14 = tested on: M14
Malme-3M = tested on: Malme-3M
OVCAR-8 = tested on: OVCAR-8
SN12C = tested on: SN12C
A549 = tested on: A549
RXF 393 = tested on: RXF 393
SF-295 = tested on: SF-295
U-251 = tested on: U-251
NCI-H522 = tested on: NCI-H522
SNB-78 = tested on: SNB-78
OVCAR-5 = tested on: OVCAR-5
MOLT-4 = tested on: MOLT-4
IGROV-1 = tested on: IGROV-1
UACC-257 = tested on: UACC-257
DMS-273 = tested on: DMS-273
UO-31 = tested on: UO-31
SK-MEL-2 = tested on: SK-MEL-2
COLO 205 = tested on: COLO 205
UACC-62 = tested on: UACC-62
M19-MEL = tested on: M19-MEL
SR = tested on: SR
SK-OV-3 = tested on: SK-OV-3
OVCAR-4 = tested on: OVCAR-4
786-0 = tested on: 786-0
SNB-75 = tested on: SNB-75
SF-268 = tested on: SF-268
LOX IMVI = tested on: LOX IMVI

Measured: GI50

COC(=O)C1C2CC3C(OC(=O)C31)C2I (stereo not drawn)
> 100 µM: HCT-15
inactive: HL-60 > 100 µM | ACHN > 100 µM | HCT-116 > 100 µM | SK-MEL-28 > 10 µM | CAKI-1 > 100 µM | EKVX > 100 µM | NCI-H226 > 100 µM | DMS-114 > 100 µM | KM-20L2 > 100 µM | A498 > 100 µM | HOP-92 > 100 µM | SF-539 > 100 µM | SK-MEL-5 > 100 µM | NCI-H460 > 100 µM | SNB-19 > 100 µM | HOP-62 > 100 µM | NCI-H23 > 100 µM | OVCAR-3 > 100 µM | TK-10 > 10 µM | HT-29 > 100 µM | HCC 2998 > 100 µM | SW-620 > 100 µM | RPMI-8226 > 100 µM | KM12 > 100 µM | K562 > 100 µM | M14 > 100 µM | Malme-3M > 100 µM | OVCAR-8 > 100 µM | SN12C > 100 µM | A549 > 100 µM | RXF 393 > 10 µM | SF-295 > 100 µM | U-251 > 100 µM | NCI-H522 > 100 µM | SNB-78 > 100 µM | OVCAR-5 > 100 µM | MOLT-4 > 100 µM | IGROV-1 > 100 µM | UACC-257 > 100 µM | DMS-273 > 100 µM | UO-31 > 100 µM | SK-MEL-2 > 100 µM | COLO 205 > 100 µM | UACC-62 > 100 µM | M19-MEL > 100 µM | SR > 100 µM | SK-OV-3 > 100 µM | OVCAR-4 > 100 µM | 786-0 > 100 µM | SNB-75 > 100 µM | SF-268 > 100 µM | LOX IMVI > 100 µM
